Measured values as given in ChEMBL document CHEMBL4184091, “Microwave-assisted synthesis of novel 5-substituted benzylidene amino-2-butyl benzofuran-3-yl-4-methoxyphenyl methanones as antileishmanial and antioxidant agents” (Bioorg Med Chem Lett, 2018).
≈ marks a conversion by molar mass, not a printed value.

Key:
[1] = Antioxidant activity assessed as DPPH radical scavenging activity after 20 to 30 mins; assay type: functional
Leishmania donovani [2] = experiment: Antileishmanial activity against promastigote form of Leishmania donovani NHOM/IN/80/DD8 assessed as decrease in cell viability after 72 hrs by MTT assay; assay type: functional, organism-based; settings: NHOM/IN/80/DD8, 72 h
Leishmania donovani [3] = experiment: Potency index, ratio of sodium stibogluconate IC50 to compound IC50 for promastigote form of Leishmania donovani NHOM/IN/80/DD8; assay type: functional

Compound: CCCCc1oc2ccc(/N=C/c3ccc(Cl)cc3)cc2c1C(=O)c1ccc(OC)cc1
- IC50 [1]: 75.86 µg/mL (≈ 170 µM)
- IC50 (Leishmania donovani [2]): 372 µg/mL (≈ 834 µM)

Compound: CCCCc1oc2ccc(/N=C/c3cccc([N+](=O)[O-])c3)cc2c1C(=O)c1ccc(OC)cc1
- IC50 [1]: 34.16 µg/mL (≈ 74.8 µM)
- IC50 (Leishmania donovani [2]): 103 µg/mL (≈ 226 µM)

Compound: CCCCc1oc2ccc(/N=C/c3ccc(OC)cc3OC)cc2c1C(=O)c1ccc(OC)cc1
- IC50 [1]: 20.53 µg/mL (≈ 43.5 µM)
- IC50 (Leishmania donovani [2]): 52 µg/mL (≈ 110 µM)

Compound: CCCCc1oc2ccc(/N=C/c3ccccc3)cc2c1C(=O)c1ccc(OC)cc1
- IC50 [1]: 34.24 µg/mL (≈ 83.2 µM)
- IC50 (Leishmania donovani [2]): 279 µg/mL (≈ 677 µM)
- Ratio IC50 (Leishmania donovani [3]): 2

Compound: CCCCc1oc2ccc(/N=C/c3ccc(F)cc3)cc2c1C(=O)c1ccc(OC)cc1
- IC50 [1]: 100.3 µg/mL (≈ 234 µM)
- IC50 (Leishmania donovani [2]): 77.4 µg/mL (≈ 180 µM)

Compound: CCCCc1oc2ccc(/N=C/c3ccc(OCC)c(OC)c3)cc2c1C(=O)c1ccc(OC)cc1
- IC50 [1]: 14.78 µg/mL (≈ 30.4 µM)
- IC50 (Leishmania donovani [2]): 238 µg/mL (≈ 491 µM)

Compound: CCCCc1oc2ccc(/N=C/c3ccc(Cl)cc3Cl)cc2c1C(=O)c1ccc(OC)cc1
- IC50 [1]: 2.44 µg/mL (≈ 5.08 µM)
- IC50 (Leishmania donovani [2]): 124 µg/mL (≈ 258 µM)

Compound: CCCCc1oc2ccc(/N=C/c3ccccc3O)cc2c1C(=O)c1ccc(OC)cc1
- IC50 [1]: 99.43 µg/mL (≈ 233 µM)
- IC50 (Leishmania donovani [2]): 115 µg/mL (≈ 268 µM)
- Ratio IC50 (Leishmania donovani [3]): 4

Compound: CCCCc1oc2ccc(/N=C/c3ccc(O)cc3)cc2c1C(=O)c1ccc(OC)cc1
- IC50 [1]: 22.79 µg/mL (≈ 53.3 µM)
- IC50 (Leishmania donovani [2]): 144 µg/mL (≈ 337 µM)
- Ratio IC50 (Leishmania donovani [3]): 4

Compound: CCCCc1oc2ccc(/N=C/c3ccc(CC)cc3)cc2c1C(=O)c1ccc(OC)cc1
- IC50 [1]: 3.69 µg/mL (≈ 8.39 µM)
- IC50 (Leishmania donovani [2]): 59.3 µg/mL (≈ 135 µM)

Compound: CCCCc1oc2ccc(/N=C/c3ccc(C#N)cc3)cc2c1C(=O)c1ccc(OC)cc1
- IC50 [1]: 27.16 µg/mL (≈ 62.2 µM)
- IC50 (Leishmania donovani [2]): 101 µg/mL (≈ 231 µM)

Compound: CCCCc1oc2ccc(/N=C/c3ccc(O)cc3O)cc2c1C(=O)c1ccc(OC)cc1
- IC50 [1]: 7.55 µg/mL (≈ 17 µM)
- IC50 (Leishmania donovani [2]): 109 µg/mL (≈ 246 µM)
- Ratio IC50 (Leishmania donovani [3]): 4

Compound: CCCCc1oc2ccc(/N=C/c3ccc([N+](=O)[O-])cc3)cc2c1C(=O)c1ccc(OC)cc1
- IC50 [1]: 53.11 µg/mL (≈ 116 µM)
- IC50 (Leishmania donovani [2]): 56 µg/mL (≈ 123 µM)

Compound: O=C1O[C@H]([C@@H](O)CO)C(O)=C1O [ASCORBIC ACID]
- IC50 [1]: 3.31 µg/mL (≈ 18.8 µM)

Compound: N=C(N)c1ccc(OCCCCCOc2ccc(C(=N)N)cc2)cc1 [PENTAMIDINE]
- IC50 (Leishmania donovani [2]): 16.1 µg/mL (≈ 47.4 µM)
